Data taken from patent publication US20130171073A1 (CEDARS-SINAI MEDICAL CENTER, priority 2010, published 2013).
Entries after “also recorded” stand apart in the source; their conditions may differ.

Columns and labels:
[1] = Insulin tolerance test in adult zebrafish; format: in vivo; settings: 0.1 unit/100 mg
Method: Zebrafish glucocorticoid steroidogenic cells are arranged as epithelial cell layers (arrowheads) in association with the renal head posterior cardinal vein (PCV) 28. […] Glucose tolerance tests were performed in 72 Tg:pomc-pttg and WT fish. Zebrafish was given ad lib feeding of regular diet for one hour (grey column) after 16 hours of fasting. Blood glucose was measured at different time points after re-feeding. Glucose levels are presented as mean±SE (AUC, p<0.0001). (C) Insulin tolerance tests in Tg:pomc-pttg and WT fish. […] (D) Oil red O(ORO) staining of liver sections reveal hepatic lipid accumulation in Tg:Pomc-pttg transgenics. (E) Area distribution and intensity of hepatic ORO staining were scored (mean±SE, *, p<0.01). […] Top, Tg:Pomc-pttg zebrafish (Tg) with gross pericardial fluid accumulation (arrow) compared with wildtype (WT) at 24 months. […]
To determine the metabolic impact of hypercortisolism in Tg:Pomc-Pttg zebrafish, adult Tg:Pomc-Pttg and WT fish were subjected to 16 hour fasting followed by ad libitum feeding of regular diet for one hour. […] Because teleost fish are glucose intolerant due to blunted peripheral responses to insulin^29, and glucocorticoids induce insulin resistance in mammals, insulin sensitivity was assessed by testing blood glucose responses to intraperitoneally administered insulin. […]

[2] = system: pituitary POMC cells overexpressing zPttg; experiment: In vivo treatment of Tg:Pomc-Pttg; POMC-eGFP zebrafish embryos with CDK inhibitors, pituitary POMC-eGFP fluorescence; settings: for reduction in pituitary POMC-eGFP expression compared with controls: 50 μM in embryo medium, control 0.2% DMSO
Method: (§1) Results represent one of three similar experiments.
(§2) WT and transgenic embryos were examined at various developmental stages under a fluorescein isothiocyanate filter on an Axioplan-2 microscope (Carl Zeiss). Live embryo images were generated with an Axiocam video system (Carl Zeiss). Fluorescence intensity of POMC-GFP-positive cells was measured by the area of interest function in Openlab software (Improvision). For confocal imaging, images were captured in a Z-series by using a TCS SP confocal microscope (Leica Microsystems). GFP was detected at a spectral range from 507 to 550 nm, RFP from 585 to 690 nm, and DAPI from 460 to 480 nm. Images were prepared using Leica LCS lite, Volocity 5.2 (Improvision), and Photoshop 7.0 (Adobe). Pituitary GFP and RFP intensity and area were measured using Volocity 5.2 (Improvision). Lipid Staining Liver cryosections were stained with oil redO (Sigma-Aldrich) per manufacturer's protocol. Lipid staining was scored based upon area distribution (>50% positive cells, 2 points; <50% but >10%, 1 point; <10%, 0 points) and intensity [strong, large (size of cell) lipid droplets, 2 points; weak, small (smaller than cell size) lipid droplets, 1 point; negative, 0 points].

[3] = system: mouse pituitary ACTH-secreting tumor AtT20 cell line; experiment: Wst-1 cell proliferation assay in AtT20 cells; settings: 1−2×10^−5 M
[4] = system: AtT20 cells; experiment: ACTH radioimmunoassay of AtT20 culture medium; settings: AtT20 cells vs vehicle
[5] = system: AtT20 corticotroph tumor xenografts; experiment: Plasma ACTH and serum corticosterone in AtT20 xenograft-bearing nude mice; settings: 150 mg/kg oral gavage twice daily, three weeks
Excerpt: (§3) Athymic nude mice were subcutaneously inoculated with corticotroph tumor AtT20 cells (1×10^5 cells). […] (D) Blood was collected from each animal for measurement of plasma ACTH and serum corticosterone levels.
Mouse corticotroph tumor AtT20 cells (−1×10^5) were inoculated s.c. into 6-wk-old female nu/nu mice. […] After 3 wk of treatment, mice were killed by CO2 inhalation, and tumors were dissected, weighted, and snapfrozen for further analysis.

[6] = system: AtT20 cells; experiment: Senescence (β-galactosidase expression) in AtT20 cells; settings: 10 μM, 48 hours
[7] = system: pituitary lactotrophs (Prl-RFP); experiment: In vivo treatment of Tg:Pomc-Pttg; Prl-RFP zebrafish embryos, pituitary Prl-RFP fluorescence; settings: 50 μM, 18 to 48 hpf
Method: as §1, §2

[8] = system: zebrafish embryos; experiment: Gross morphology / development of zebrafish embryos exposed to CDK inhibitors; settings: 50 μM, starting at 18 hpf, observed by 40 hpf
Method: (C) In vivo treatment of Tg:Pomc-Pttg; Pomc-eGFP embryos with different small molecule CDK inhibitors (50 μM) or 0.2% DMSO as control from 18-40 hpf. 100-150 embryos were treated with each compound at a time. Representative images of live embryos are shown with gross morphology (right panels) and pituitary Pomc-GFP positive cells at higher magnification (left panels) at 40 hpf. […] (D) Relative expression of pituitary Pomc-eGFP fluorescence were analyzed using Velocity 5.2 (Improvision) (mean±SE of relative expression, n=7 randomly picked embryos from 100-150 embryos of each group). […] Results represent one of three similar experiments. Scale bar, 50 μm. *, p<0.02; **, p<0.000005.
Tg:Pomc-Pttg; POMC-eGFP double transgenic embryos were exposed to each compound added to the embryo culture medium.
Dexamethasone (Sigma) was dissolved in distilled water, R-roscovitin (Selleck Chemicals), flavopiridol (Selleck Chemicals), PD0332991 (Selleck Chemicals), olomoucine (Cayman Chemical Co.), and CAY10578 (Cayman Chemical Co.) were dissolved in 0.2% DMSO at a stock concentration of 1 mM, and diluted in fish medium immediately before adding to live embryos at the stages indicated.

[9] = system: AtT20 corticotroph tumor xenografts; experiment: AtT20 corticotroph tumor xenograft in athymic nude mice, tumor growth and tumor protein expression; settings: 150 mg/kg oral gavage twice daily
Method: as §3
Animal experiments were performed in accordance with Cedars-Sinai Institutional Animal Care and Use committee guidelines. Mouse corticotroph tumor AtT20 cells (−1×10^5) were inoculated s.c. into 6-wk-old female nu/nu mice. […] After 3 wk of treatment, mice were killed by CO2 inhalation, and tumors were dissected, weighted, and snapfrozen for further analysis.
Protein samples were prepared in RIPA buffer (Sigma), separated on NuPAGE Novex Bis-Tris Gels (Invitrogen), and transferred onto PVDF membrane (Millipore) before blotting with primary antibody [cyclin E, 1:500 (Abcam); PTTG, 1:1,000 (Abcam); β-actin, 1:5,000 (Sigma); and p21, 1:1,000, p27, 1:500, p57, 1:1,000, pRb821, 1:1,000 (Santa Cruz Biotechnology)] at 4° C. overnight. After washes with 0.5% Tween-20 in Tris-buffered saline solution, membranes were incubated with horseradish peroxidaselinked secondary antibody (GE Healthcare) and developed using ECL Western blotting detection reagents (GE Healthcare).

[10] = 18-40 hpf, Tg:Pomc-Pttg, POMC-eGFP embryos

## insulin: insulin injected intraperitoneally for insulin tolerance test
[1]; Tg:Pomc-Pttg fish, up to 90 minutes after injection
  blood glucose response to intraperitoneal insulin: no significant change
[1]; WT fish, 30 minutes after injection
  blood glucose response to intraperitoneal insulin: brisk hypoglycemic response

## CC[C@H](CO)Nc1nc(NCc2ccccc2)c2ncn(C(C)C)c2n1 [R-roscovitine]
[2]; [10]
  reduction in pituitary POMC-eGFP expression compared with controls: approximately 40%
[2]; 50 μM, 18 to 48 hpf, Tg:Pomc-Pttg, POMC-eGFP embryos
  reduction of POMC-eGFP expression compared with control: greater than 50%
[3]; at 24 and 48 hours
  number of viable cells (Wst-1): decreased number of viable cells
[3]; by 24 hours
  cell number: decreased cell number
[4]
  ACTH concentration in culture medium (RIA): decreased
[5]
  reduction in plasma ACTH levels: > 50%
  reduction in serum corticosterone levels: ~50%
[6]
  β-galactosidase expression (senescence): increased
[7]
  effect on Prl-RFP expression: no effect
[8]
  embryonic growth / development of treated embryos: no apparent growth defect
[9]; 3 weeks
  numbers of PCNA and ACTH co-expressing cells in tumors: decreased
[9]; 5 days per week, 3 weeks
  tumor volumes: decreased
[9]; 5 days per week, three weeks
  weight reduction of dissected tumor xenografts: ~50%
[9]; 5 days per week, three weeks, vehicle 40.0±4.7 mg, n=13-14
  weight of dissected tumor xenografts (mean±S.E.): 21.0 ± 2.6 mg
[9]; three weeks
  ACTH protein expression in tumor specimens (Western-blot and immunohistochemistry): suppressed
  PCNA protein expression in tumor specimens (Western-blot and immunohistochemistry): suppressed

## Cn1cnc2c(NCc3ccccc3)nc(NCCO)nc21 [olomoucine]
[2]; [10]
  reduction in pituitary POMC-eGFP expression compared with controls: approximately 20%
[2]; 50 μM, 18-40 hpf, n=7, control 1.0±0.08
  relative expression of pituitary POMC-eGFP fluorescence (mean±S.E.): 0.8±0.07
[8]
  embryonic growth / development of treated embryos: no apparent growth defect

## CN1CC[C@@H](c2c(O)cc(O)c3c(=O)cc(-c4ccccc4Cl)oc23)[C@H](O)C1 [flavopiridol, 2-(2-chlorophenyl)-5,7-dihydroxy-8-((3S,4S)-3-hydroxy-1-methylpiperidin-4-yl)-4H-chromen-4-one]
[8]
  embryonic growth / development of treated embryos: early developmental defect; also recorded: retarded early embryonic development

## O=C1NCCc2[nH]c(-c3ccncc3)cc21 [CAY10572]
[2]; 50 μM, 18-40 hpf, Tg:Pomc-Pttg, POMC-eGFP embryos
  change in pituitary POMC-eGFP expression compared with controls: no significant change
